Structures can show the parent of a compound that is named as a salt.
What was measured:
nanobacteria [1] = assay: Treatment of human patients infected with nanobacteria; format: in vivo; conditions: person, chronic fatigue syndrome
nanobacteria [2] = assay: Antibiotic susceptibility of nanobacteria, Minimal Inhibition Concentration (MIC) in 96-well plates; format: cell-based
Method: Antibiotic sensitivity tests were carried out by measuring Minimal Inhibition Concentration (MIC), a common practice in clinical microbiology.
The tests were performed in 96-well plates. DMEM (commercial cell culture medium) containing 10% gamma-irradiated fetal bovine serum (FBS)(dose about 3 Mrads; this treatment inactivates nanobacteria in the serum so that the basic medium is sterile) was used as the basic culture medium. These components are commercially available, e.g., from Gibco. The antibiotic stock solutions were sterile filtered through 0.2 micrometer filters. The stock solutions were then serially diluted (into the basal culture medium) to provide a final starting concentration of 0.5 mg/ml and 1:2 dilutions therefrom, unless otherwise specified. For each antibiotic three parallel tests were performed using all the antibiotic dilutions and, additionally, positive and negative control experiments. […] 100 μl of dilutions of the nanobacteria inoculum were added to all wells except the negative controls. The plates were incubated at mammalian cell culture conditions (37° Celsius, 5% carbon dioxide, 95% humid air). The absorbance values at 650 nm were recorded by using an ELISA reader at the start, and at 4, 8, 12, 14 days. […] Calculations were based on absorbance curves where absorbance was plotted against concentration of the antibiotic.

SF-nanobacteria = assay: Chemical disinfection of SF-nanobacteria; format: cell-based; parameters: Resistance of SF-nanobacteria to chemical disinfectants (survival), exposure time 10 min: key to the marks not given beside the values; conditions: for Resistance of SF-nanobacteria to chemical disinfectants (survival), exposure time 10 min: 10 min exposure at room temperature; for Resistance of SF-nanobacteria to chemical disinfectants (survival), exposure time 10 min / Resistance of SF-nanobacteria to chemical disinfectants (survival), exposure time 30 min: survival after subculture compared to diluent only; for Resistance of SF-nanobacteria to chemical disinfectants (survival), exposure time 30 min: 30 min exposure at room temperature; for Effect of chemical treatment on SF-nanobacteria (in words): room temperature exposure
From the text: The cultures were exposed to the disinfectants after removal of the culture medium. For the autoclaving, UV, microwave, and drying treatments, the medium was removed and an equal amount of PBS used instead. For the heat treatments, the SF-nanobacteria were harvested by scraping the culture vessel followed by centrifugation of the medium. The obtained pellet was suspended in PBS and used in the test. After treatments the SF-nanobacteria were subcultured in DMEM medium and the growth followed by light microscopy to see the adherence and typical mineralization.
The concentrations of the chemicals used were those commonly used for disinfection or as instructed by the manufacturer. The chemicals included 70% ethanol, 2% glutaraldehyde, 4% formaldehyde, 0.5% hypochlorite, 3% hydrogen peroxide, 1M hydrochloric acid (HCl), 1M sodium hydroxide (NaOH), 1% sodium dodecyl sulfate (SDS), 1% Tween 80, 1% Triton X-100, 3M guanidium-hydrochloride, 3M urea, 1% Virkon® (Antec International Ltd., Suffolk, England; 100% product contains 50% potassium persulfate, 5% sulfaminoic acid), 1.5% Erifenol® (Orion OY, Finland; 100% product contains <5% NaOH, <5% o-benzyl-p-chlorophenol, 5-15% p-chloro-m-cresol), 1% Klorilli® (Orion OY, Finland; 100% product contains sodium metasilicate, sodium N-chloro-p-toluenesulfonamide-3-hydrate and 20,000 ppm active chlorine), and 3% Buraton® (Schulke & Mayr, Germany; 100% product contains 4.5% formaldehyde, 6.8% glyoxal, 1.5% glyoxylic acid, 6% dimethylaurylbenzyl-ammonium chloride). The dilutions to be used were freshly prepared on the day of exposure in sterile distilled water. As a positive control, only diluent was used. Negative control contained only culture medium.
The SF-nanobacteria were exposed to the chemicals for 10 and 30 minutes at room temperature after removal of the culture medium. After exposure, the disinfectant solution was removed and fresh medium added (with a neutralization step in the case of HCl and NaOH). If any significant deattachment occurred, nanobacteria were recovered by centrifugation, and subcultured.

[3] = test system: nanobacterial stone formation on human teeth; conditions: fluoride concentrations typically present in toothpastes
[4] = test system: calculus formation on teeth; conditions: laboratory animals; cited from earlier work
nanobacteria [5] = assay: Nanobacterial growth in culture media with metal ions; format: cell-based; conditions: added to culture media at submillimolar levels
From the text: (§1) Nanobacteria also absorb some heavy metals. Nanobacteria can be stained well with silver or copper compounds. […] Silver and copper parts or platings on surfaces, such as catheters or stents, can provide an antinanobacterial effect by preventing nanobacterial biofilm formation. In in vitro tests nanobacteria avidly formed biofilm on two different commercial stents made of a plastic type of material. This biofilm formation was prevented by the addition of silver or copper salts to the culture medium.

nanobacterial biofilm = assay: Nanobacterial biofilm formation on commercial stents in vitro; format: cell-based, nanobacteria; conditions: salts added to the culture medium; two commercial plastic-type stents
From the text: as §1

CN(C)[C@@H]1C(O)=C(C(N)=O)C(=O)[C@@]2(O)C(O)=C3C(=O)c4c(O)cccc4[C@@](C)(O)[C@H]3C[C@@H]12 [tetracycline HCl]
Nanobacteria status of patient samples (nanobacteria [1]; 500 mg 4 times per day for one month, then 500 mg twice a day for 5 months, urine and serum samples): nanobacteria negative after one month therapy | Patient's condition (nanobacteria [1]; after one month therapy): improved

O=C(O)CN(CCOCCOCCN(CC(=O)O)CC(=O)O)CC(=O)O [EGTA]
Kind of antinanobacterial effect in the in vitro test (in words) (nanobacteria [2]): antinanobacterial effects

[H]/N=C(/N)N[C@H]1[C@H](O)[C@@H](O)[C@H](O[C@@H]2O[C@@H](C)[C@](O)(C=O)[C@H]2O[C@@H]2O[C@@H](CO)[C@H](O)[C@@H](O)[C@@H]2NC)[C@@H](N/C(N)=N\[H])[C@@H]1O [Streptomycin]
Kind of antinanobacterial effect in the in vitro test (in words) (nanobacteria [2]): bacteriostatic effects at high antibiotic concentrations

Vitamin D
Kind of antinanobacterial effect in the in vitro test (in words) (nanobacteria [2]): very weak inhibitory effect

C=O [4% formaldehyde, formaldehyde]
Resistance of SF-nanobacteria to chemical disinfectants (survival), exposure time 10 min (SF-nanobacteria): +++ | Resistance of SF-nanobacteria to chemical disinfectants (survival), exposure time 30 min (SF-nanobacteria): +++

NC(N)=O [3M Urea, urea]
Resistance of SF-nanobacteria to chemical disinfectants (survival), exposure time 10 min (SF-nanobacteria): +++ | Resistance of SF-nanobacteria to chemical disinfectants (survival), exposure time 30 min (SF-nanobacteria): +++

OCl [0.5% hypochlorite, hypochlorite]
Resistance of SF-nanobacteria to chemical disinfectants (survival), exposure time 10 min (SF-nanobacteria): +++ | Resistance of SF-nanobacteria to chemical disinfectants (survival), exposure time 30 min (SF-nanobacteria): +++

Nc1ccc(C(=O)O)c(O)c1 [para-aminosalicylic acid]
MIC value (in words) (nanobacteria [2]; compared with acetylsalicylic acid): identical with acetylsalicylic acid

F [Fluoride]
Nanobacterial stone formation on human teeth [3]: inhibit nanobacterial stone formation

Penicillin
Calculus formation [4]: do not

[Na+].[OH-] [1M NaOH, sodium hydroxide]
Resistance of SF-nanobacteria to chemical disinfectants (survival), exposure time 10 min (SF-nanobacteria): +++ | Resistance of SF-nanobacteria to chemical disinfectants (survival), exposure time 30 min (SF-nanobacteria): +++

Triton X-100 [1% Triton X-100]
Resistance of SF-nanobacteria to chemical disinfectants (survival), exposure time 10 min (SF-nanobacteria): +++ | Resistance of SF-nanobacteria to chemical disinfectants (survival), exposure time 30 min (SF-nanobacteria): +++

CC1=CC(=O)c2ccccc2C1=O [Vitamin K (Menadion), Menadion]
Kind of antinanobacterial effect in the in vitro test (in words) (nanobacteria [2]): toxic to nanobacteria at concentrations that are not harmful to mammalian cells

CC(O)(P(=O)(O)O)P(=O)(O)O [Ethidronate]
Kind of antinanobacterial effect in the in vitro test (in words) (nanobacteria [2]): bacteriocidic effect

CCCCCCCCCCCCOS(=O)(=O)[O-].[Na+] [1% SDS, sodium dodecyl sulfate]
Resistance of SF-nanobacteria to chemical disinfectants (survival), exposure time 10 min (SF-nanobacteria): +++ | Resistance of SF-nanobacteria to chemical disinfectants (survival), exposure time 30 min (SF-nanobacteria): +++

OO [3% H2O2, hydrogen peroxide]
Resistance of SF-nanobacteria to chemical disinfectants (survival), exposure time 10 min (SF-nanobacteria): +++ | Resistance of SF-nanobacteria to chemical disinfectants (survival), exposure time 30 min (SF-nanobacteria): +++

Neomycin
Kind of antinanobacterial effect in the in vitro test (in words) (nanobacteria [2]): bacteriostatic effects at high antibiotic concentrations

CCO [70% ethanol, ethanol]
Resistance of SF-nanobacteria to chemical disinfectants (survival), exposure time 10 min (SF-nanobacteria): +++ | Resistance of SF-nanobacteria to chemical disinfectants (survival), exposure time 30 min (SF-nanobacteria): +++

silver
Nanobacterial growth (nanobacteria [5]): prevented nanobacterial growth | Biofilm formation on stents (nanobacterial biofilm): prevented

O=C(O)CC(O)(CC(=O)O)C(=O)O [Citrate]
Kind of antinanobacterial effect in the in vitro test (in words) (nanobacteria [2]): effective antinanobacterial agent

O=C(O)CN(CCN(CC(=O)O)CC(=O)O)CC(=O)O [EDTA, ethylenediaminetetraacetic acid]
Kind of antinanobacterial effect in the in vitro test (in words) (nanobacteria [2]): antinanobacterial effects

CN[C@H](CC(C)C)C(=O)N[C@H]1C(=O)N[C@@H](CC(N)=O)C(=O)N[C@H]2C(=O)N[C@H]3C(=O)N[C@H](C(=O)N[C@H](C(=O)O)c4cc(O)cc(O)c4-c4cc3ccc4O)[C@H](O)c3ccc(c(Cl)c3)Oc3cc2cc(c3O[C@@H]2O[C@H](CO)[C@@H](O)[C@H](O)[C@H]2O[C@H]2C[C@](C)(N)[C@H](O)[C@H](C)O2)Oc2ccc(cc2Cl)[C@H]1O [Vancomycin]
Kind of antinanobacterial effect in the in vitro test (in words) (nanobacteria [2]): effective bacteriostat against nanobacteria at relatively high concentrations

N=C(N)N [3M Guanidium HCl, guanidium-hydrochloride]
Resistance of SF-nanobacteria to chemical disinfectants (survival), exposure time 30 min (SF-nanobacteria): 0 | Effect of chemical treatment on SF-nanobacteria (in words) (SF-nanobacteria): resulted in the deattachment of the SF-nanobacteria

[Cu] [copper]
Nanobacterial growth (nanobacteria [5]): prevented nanobacterial growth | Biofilm formation on stents (nanobacterial biofilm): prevented

Cl [1M HCl, hydrochloric acid]
Resistance of SF-nanobacteria to chemical disinfectants (survival), exposure time 30 min (SF-nanobacteria): ++ | Effect of chemical treatment on SF-nanobacteria (in words) (SF-nanobacteria): dissolved the apatite layer of nanobacteria, but remineralization was observed after addition of culture medium

CCCCCCCC/C=C\CCCCCCCC(=O)OCCOCC(OCCO)C1OCC(OCCO)C1OCCO (stereo not shown) [1% Tween 80, Tween 80]
Resistance of SF-nanobacteria to chemical disinfectants (survival), exposure time 10 min (SF-nanobacteria): +++ | Resistance of SF-nanobacteria to chemical disinfectants (survival), exposure time 30 min (SF-nanobacteria): +++

CC(=O)Oc1ccccc1C(=O)O [Acetylsalicylic acid]
Kind of antinanobacterial effect in the in vitro test (in words) (nanobacteria [2]): weak

C[C@H]1c2cccc(O)c2C(=O)C2=C(O)[C@]3(O)C(=O)C(C(N)=O)=C(O)[C@@H](N(C)C)[C@@H]3[C@@H](O)[C@@H]21 [Doxycyclin, Doxycycline]
Kind of antinanobacterial effect in the in vitro test (in words) (nanobacteria [2]): effective on inhibiting nanobacterial growth | MIC values calculated from the 8 day results (nanobacteria [2]; 8 day results): around 1 mg per liter | Stability under the test conditions (nanobacteria [2]; MIC test culture conditions): not stable under the test conditions

O=CCCCC=O [2% glutaraldehyde, glutaraldehyde]
Resistance of SF-nanobacteria to chemical disinfectants (survival), exposure time 10 min (SF-nanobacteria): +++ | Resistance of SF-nanobacteria to chemical disinfectants (survival), exposure time 30 min (SF-nanobacteria): +++

O=P(O)(O)C(Cl)(Cl)P(=O)(O)O [Chlodronate]
Kind of antinanobacterial effect in the in vitro test (in words) (nanobacteria [2]): bacteriocidic effect

COc1cc(Cc2cnc(N)nc2N)cc(OC)c1OC [Trimethoprim]
Kind of antinanobacterial effect in the in vitro test (in words) (nanobacteria [2]): highly effective but was only bacteriostatic

CC1(C)S[C@@H]2[C@H](NC(=O)[C@H](N)c3ccccc3)C(=O)N2[C@H]1C(=O)O [Ampicillin]
Kind of antinanobacterial effect in the in vitro test (in words) (nanobacteria [2]): weak bacteriostatic effect

From patent publication US20050036904A1, “Methods for eradication of nanobacteria” (priority 1998, published 2005)
